Data on 1 compound can be found in paper PMC5218480 (PLoS ONE, 2017).

This experiment deals with MV-4-11 cells. The experiment can be described thus: Gene expression microarray analysis (Affymetrix PrimeView) and GSEA. More on the design: RFU PODN (11730768_x_at) / Fold change /veh PODN (11730768_x_at) / RFU LINC00158 (11744669_a_at) / Fold change /veh LINC00158 (11744669_a_at) / RFU DUSP10 (11751237_a_at) / Fold change /veh DUSP10 (11751237_a_at) / RFU ID3 (11757404_x_at) / Fold change /veh ID3 (11757404_x_at) / RFU PLEKHG5 (11737974_s_at) / Fold change /veh PLEKHG5 (11737974_s_at) / RFU LRRC4B (11730491_at) / Fold change /veh LRRC4B (11730491_at) / RFU GIMAP4 (11747438_a_at) / Fold change /veh GIMAP4 (11747438_a_at) / RFU KRT8 (11758183_x_at) / Fold change /veh KRT8 (11758183_x_at) / RFU CNN1 (11734310_a_at) / Fold change /veh CNN1 (11734310_a_at) / RFU VPS37D (11726825_at) / Fold change /veh VPS37D (11726825_at) / RFU C10orf10 (11716522_x_at) / Fold change /veh C10orf10 (11716522_x_at) / RFU KIR2DL2 /// KIR2DL4 /// KIR2DL5A /// KIR2DL5B /// KIR2DS1 /// KIR2DS2 /// KIR2DS3 /// KIR2DS4 /// KIR3DL3 /// KIR3DL3 /// KIR3DS1 (11738374_at) / Fold change /veh KIR2DL2 /// KIR2DL4 /// KIR2DL5A /// KIR2DL5B /// KIR2DS1 /// KIR2DS2 /// KIR2DS3 /// KIR2DS4 /// KIR3DL3 /// KIR3DL3 /// KIR3DS1 (11738374_at) / RFU C1QL1 (11718748_at) / Fold change /veh C1QL1 (11718748_at) / RFU TMPRSS4 (11747572_a_at) / Fold change /veh TMPRSS4 (11747572_a_at) / RFU HAMP (11756126_x_at) / Fold change /veh HAMP (11756126_x_at) / RFU RNFT2 (11725882_a_at) / Fold change /veh RNFT2 (11725882_a_at) / RFU NR4A2 (11747474_a_at) / Fold change /veh NR4A2 (11747474_a_at) / RFU ABCC12 (11746883_a_at) / Fold change /veh ABCC12 (11746883_a_at) / RFU TMEM136 (11760407_x_at) / Fold change /veh TMEM136 (11760407_x_at) / RFU CLDN22 /// WWC2 (11732394_at) / Fold change /veh CLDN22 /// WWC2 (11732394_at) / RFU HLA-DPB1 (11760878_x_at) / Fold change /veh HLA-DPB1 (11760878_x_at) / RFU SPINT1 (11716480_a_at) / Fold change /veh SPINT1 (11716480_a_at) / RFU GAP43 (11754022_s_at) / Fold change /veh GAP43 (11754022_s_at) / RFU A4GNT (11735810_at) / Fold change /veh A4GNT (11735810_at) / RFU PRB3 (11715151_x_at) / Fold change /veh PRB3 (11715151_x_at) / RFU TUBB4B (11761932_at) / Fold change /veh TUBB4B (11761932_at) / RFU CAPN14 (11732068_a_at) / Fold change /veh CAPN14 (11732068_a_at) / RFU TMCC2 (11721928_a_at) / Fold change /veh TMCC2 (11721928_a_at) / RFU IRGQ (11745062_a_at) / Fold change /veh IRGQ (11745062_a_at) / RFU FAM174B (11720279_a_at) / Fold change /veh FAM174B (11720279_a_at) / RFU TMPRSS4 (11748680_a_at) / Fold change /veh TMPRSS4 (11748680_a_at) / RFU FAM212B (11763350_a_at) / Fold change /veh FAM212B (11763350_a_at) / RFU PLEKHG5 (11743358_a_at) / Fold change /veh PLEKHG5 (11743358_a_at) / RFU ZSCAN30 (11745921_a_at) / Fold change /veh ZSCAN30 (11745921_a_at) / RFU CMKLR1 (11741424_a_at) / Fold change /veh CMKLR1 (11741424_a_at) / RFU LOC101060620 /// MAPK8IP1 (11723275_at) / Fold change /veh LOC101060620 /// MAPK8IP1 (11723275_at) / RFU SPTSSB (11747773_x_at) / Fold change /veh SPTSSB (11747773_x_at) / RFU PRSS12 (11739890_at) / Fold change /veh PRSS12 (11739890_at) / RFU BIN1 (11741810_x_at) / Fold change /veh BIN1 (11741810_x_at) / RFU WNT11 (11732464_a_at) / Fold change /veh WNT11 (11732464_a_at) / RFU C10orf10 (11716521_a_at) / Fold change /veh C10orf10 (11716521_a_at) / RFU C5orf56 (11738089_at) / Fold change /veh C5orf56 (11738089_at) / RFU CYB561 (11721691_x_at) / Fold change /veh CYB561 (11721691_x_at) / RFU ANKRD19P (11752326_a_at) / Fold change /veh ANKRD19P (11752326_a_at) / RFU OR2T12 /// OR2T33 /// OR2T8 (11738714_s_at) / Fold change /veh OR2T12 /// OR2T33 /// OR2T8 (11738714_s_at) / RFU VCAN (11748164_a_at) / Fold change /veh VCAN (11748164_a_at) / RFU JSRP1 (11732532_at) / Fold change /veh JSRP1 (11732532_at) / RFU KRTAP10-11 (11738290_x_at) / Fold change /veh KRTAP10-11 (11738290_x_at) / RFU MYO3A (11730013_a_at) / Fold change /veh MYO3A (11730013_a_at) / RFU EBF3 (11725865_a_at) / Fold change /veh EBF3 (11725865_a_at) / RFU CAMK2N1 (11719241_x_at) / Fold change /veh CAMK2N1 (11719241_x_at) / RFU C5orf56 (11738088_a_at) / Fold change /veh C5orf56 (11738088_a_at) / RFU OLFML3 (11715873_a_at) / Fold change /veh OLFML3 (11715873_a_at) / RFU LOC100653217 /// NTM (11731650_a_at) / Fold change /veh LOC100653217 /// NTM (11731650_a_at) / RFU MAPK11 (11762145_a_at) / Fold change /veh MAPK11 (11762145_a_at) / RFU FIZ1 (11724087_x_at) / Fold change /veh FIZ1 (11724087_x_at) / RFU OASL (11726364_x_at) / Fold change /veh OASL (11726364_x_at) / RFU SOX15 (11748057_x_at) / Fold change /veh SOX15 (11748057_x_at) / RFU CD79A (11719716_a_at) / Fold change /veh CD79A (11719716_a_at) / RFU HIST1H1D (11736915_at) / Fold change /veh HIST1H1D (11736915_at) / RFU CASKIN2 (11723855_a_at) / Fold change /veh CASKIN2 (11723855_a_at) / RFU LOC730098 (11760151_x_at) / Fold change /veh LOC730098 (11760151_x_at) / RFU OR4N2 (11742367_at) / Fold change /veh OR4N2 (11742367_at) / RFU PRRT2 (11749266_a_at) / Fold change /veh PRRT2 (11749266_a_at) / RFU SNX32 (11753110_a_at) / Fold change /veh SNX32 (11753110_a_at) / RFU CDHR5 (11726645_a_at) / Fold change /veh CDHR5 (11726645_a_at) / RFU RCAN1 (11760418_a_at) / Fold change /veh RCAN1 (11760418_a_at) / RFU FAM167A (11723789_a_at) / Fold change /veh FAM167A (11723789_a_at) / RFU FAM26E (11764081_at) / Fold change /veh FAM26E (11764081_at) / RFU ISYNA1 (11749810_s_at) / Fold change /veh ISYNA1 (11749810_s_at) / RFU ACY1 (11761880_at) / Fold change /veh ACY1 (11761880_at) / RFU 11764098_at / Fold change /veh 11764098_at / RFU SAMD14 (11745864_x_at) / Fold change /veh SAMD14 (11745864_x_at) / RFU NPB (11741838_a_at) / Fold change /veh NPB (11741838_a_at) / RFU TMPRSS6 (11731388_a_at) / Fold change /veh TMPRSS6 (11731388_a_at) / RFU KRTAP10-2 (11738614_at) / Fold change /veh KRTAP10-2 (11738614_at) / RFU ARHGAP8 /// PRR5-ARHGAP8 (11727945_x_at) / Fold change /veh ARHGAP8 /// PRR5-ARHGAP8 (11727945_x_at) / RFU KRTAP5-7 /// NADSYN1 (11734609_at) / Fold change /veh KRTAP5-7 /// NADSYN1 (11734609_at) / RFU RASL12 (11751679_a_at) / Fold change /veh RASL12 (11751679_a_at) / RFU CDKN2B (11736163_a_at) / Fold change /veh CDKN2B (11736163_a_at) / RFU PRF1 (11729649_at) / Fold change /veh PRF1 (11729649_at) / RFU, ZNF638 /// ZNF638-IT1 / Fold change vs veh, ZNF638 /// ZNF638-IT1 / RFU, PANK3 / Fold change vs veh, PANK3 / RFU, SH3YL1 / Fold change vs veh, SH3YL1 / RFU, ZEB2 / Fold change vs veh, ZEB2 / RFU, NRIP1 / Fold change vs veh, NRIP1 / RFU, PTTG1IP / Fold change vs veh, PTTG1IP / RFU, CAPN2 / Fold change vs veh, CAPN2 / RFU, MED14 / Fold change vs veh, MED14 / RFU, SNORA58 / Fold change vs veh, SNORA58 / RFU, C1orf63 / Fold change vs veh, C1orf63 / RFU, LRRFIP1 / Fold change vs veh, LRRFIP1 / RFU, NDUFAF7 / Fold change vs veh, NDUFAF7 / RFU, SLC12A2 / Fold change vs veh, SLC12A2 / RFU, IBTK / Fold change vs veh, IBTK / RFU, ESF1 / Fold change vs veh, ESF1 / Fold change vs veh, TMEM50B / RFU, TAOK1 / Fold change vs veh, TAOK1 / RFU, ACBD3 / Fold change vs veh, ACBD3 / RFU, TMA16 / Fold change vs veh, TMA16 / RFU, RWDD3 / Fold change vs veh, RWDD3 / RFU, BCAT1 / Fold change vs veh, BCAT1 / RFU, EDEM3 / Fold change vs veh, EDEM3 / RFU, TMEM33 / Fold change vs veh, TMEM33 / RFU, WDR75 / Fold change vs veh, WDR75 / RFU, AHCTF1 / Fold change vs veh, AHCTF1 / RFU, TFRC / Fold change vs veh, TFRC / RFU, ZDHHC17 / Fold change vs veh, ZDHHC17 / RFU, NOM1 / Fold change vs veh, NOM1 / RFU, ARL8B / Fold change vs veh, ARL8B / RFU, ZBTB11 / Fold change vs veh, ZBTB11 / RFU, TAMM41 / Fold change vs veh, TAMM41 / RFU, KIAA1704 /// LOC100996395 / Fold change vs veh, KIAA1704 /// LOC100996395 / RFU, ING1 / Fold change vs veh, ING1 / RFU, TRMT61B / Fold change vs veh, TRMT61B / RFU, FUBP3 / Fold change vs veh, FUBP3 / RFU, TP53 / Fold change vs veh, TP53 / RFU, TNKS2 / Fold change vs veh, TNKS2 / RFU, ZFP14 / Fold change vs veh, ZFP14 / RFU, ACTR2 / Fold change vs veh, ACTR2 / RFU, PPP3R1 / Fold change vs veh, PPP3R1 / RFU, PIK3R1 / Fold change vs veh, PIK3R1 / RFU, HNRNPA1 / Fold change vs veh, HNRNPA1 / RFU, RNF170 / Fold change vs veh, RNF170 / RFU, ZNF28 / Fold change vs veh, ZNF28 / RFU, RNGTT / Fold change vs veh, RNGTT / RFU, OGT / Fold change vs veh, OGT / RFU, BRD1 / Fold change vs veh, BRD1 / RFU, MARS / Fold change vs veh, MARS / RFU, ZNF655 / Fold change vs veh, ZNF655 / RFU, FAHD1 / Fold change vs veh, FAHD1 / RFU, BDP1 / Fold change vs veh, BDP1 / RFU, LRRCC1 / Fold change vs veh, LRRCC1 / RFU, ARID1A / Fold change vs veh, ARID1A / RFU, ZNF146 / Fold change vs veh, ZNF146 / RFU, ZNF330 / Fold change vs veh, ZNF330 / RFU, GPN3 / Fold change vs veh, GPN3 / RFU, C9orf123 / Fold change vs veh, C9orf123 / RFU, N4BP2L2 / Fold change vs veh, N4BP2L2 / RFU, ARFIP1 / Fold change vs veh, ARFIP1 / RFU, FAM179B / Fold change vs veh, FAM179B / RFU, BCL10 / Fold change vs veh, BCL10 / RFU, UHRF1BP1L / Fold change vs veh, UHRF1BP1L / RFU, BET1 / Fold change vs veh, BET1 / RFU, CNOT2 / Fold change vs veh, CNOT2 / RFU, ZNF268 / Fold change vs veh, ZNF268 / Fold change vs veh, ZNF507 / RFU, DGCR2 / Fold change vs veh, DGCR2 / RFU, WDSUB1 / Fold change vs veh, WDSUB1 / Fold change vs veh, HSP90B1 /// MIR3652 / RFU, ADSS / Fold change vs veh, ADSS / RFU, GK / Fold change vs veh, GK / RFU, ZNF148 / Fold change vs veh, ZNF148 / RFU, TAF9 / Fold change vs veh, TAF9 / RFU, SLC1A5 / Fold change vs veh, SLC1A5 / RFU, SLMO2 / Fold change vs veh, SLMO2 / RFU, ABCC4 / Fold change vs veh, ABCC4 / RFU, LOC101060439 /// RAP1B / Fold change vs veh, LOC101060439 /// RAP1B / RFU, RFX7 / Fold change vs veh, RFX7 / RFU, GTPBP10 / Fold change vs veh, GTPBP10 / RFU, CNEP1R1 / Fold change vs veh, CNEP1R1 / RFU, BIVM-ERCC5 /// ERCC5 / Fold change vs veh, BIVM-ERCC5 /// ERCC5 / RFU, ILF3 / Fold change vs veh, ILF3 / RFU 11762660_at / Fold change /veh 11762660_at / RFU VCAN (11757783_s_at) / Fold change /veh VCAN (11757783_s_at) / RFU DDX43 (11728927_at) / Fold change /veh DDX43 (11728927_at) / RFU KRT8 (11758188_x_at) / Fold change /veh KRT8 (11758188_x_at) / RFU NKD1 (11759106_at) / Fold change /veh NKD1 (11759106_at) / RFU SRD5A1 (11742802_a_at) / Fold change /veh SRD5A1 (11742802_a_at) / RFU TPSAB1 /// TPSB2 (11721975_s_at) / Fold change /veh TPSAB1 /// TPSB2 (11721975_s_at) / RFU GSTM3 (11746129_a_at) / Fold change /veh GSTM3 (11746129_a_at) / RFU IL23R (11737362_x_at) / Fold change /veh IL23R (11737362_x_at) / RFU TMEM51 (11727254_a_at) / Fold change /veh TMEM51 (11727254_a_at) / RFU PIWIL2 (11732686_x_at) / Fold change /veh PIWIL2 (11732686_x_at) / RFU ORM1 (11744905_x_at) / Fold change /veh ORM1 (11744905_x_at) / RFU CCDC152 (11743942_at) / Fold change /veh CCDC152 (11743942_at) / RFU ECM1 (11717891_a_at) / Fold change /veh ECM1 (11717891_a_at) / RFU IL23R (11748794_a_at) / Fold change /veh IL23R (11748794_a_at) / RFU TNFAIP8L3 (11732012_x_at) / Fold change /veh TNFAIP8L3 (11732012_x_at) / RFU MBOAT4 (11741988_at) / Fold change /veh MBOAT4 (11741988_at) / RFU 11764193_at / Fold change /veh 11764193_at / RFU TMEM53 (11763286_at) / Fold change /veh TMEM53 (11763286_at) / RFU MAGEB2 (11727129_at) / Fold change /veh MAGEB2 (11727129_at) / RFU TMEM200A (11744735_a_at) / Fold change /veh TMEM200A (11744735_a_at) / RFU CCDC152 (11751479_a_at) / Fold change /veh CCDC152 (11751479_a_at) / RFU FAM211A (11726209_a_at) / Fold change /veh FAM211A (11726209_a_at) / RFU RGS16 (11746705_a_at) / Fold change /veh RGS16 (11746705_a_at) / RFU VCAN (11755009_s_at) / Fold change /veh VCAN (11755009_s_at) / RFU RHOB (11743442_s_at) / Fold change /veh RHOB (11743442_s_at) / RFU RGS16 (11720943_a_at) / Fold change /veh RGS16 (11720943_a_at) / RFU RGS16 (11720944_at) / Fold change /veh RGS16 (11720944_at) / RFU, VPS4B / Fold change vs veh, VPS4B / RFU, CREB1 / Fold change vs veh, CREB1 / RFU, DNAJC13 / Fold change vs veh, DNAJC13 / RFU, GNAQ / Fold change vs veh, GNAQ / RFU, CDK5R1 / Fold change vs veh, CDK5R1 / RFU, ZRANB3 / Fold change vs veh, ZRANB3 / RFU, CUL4A / Fold change vs veh, CUL4A / RFU, CCNY / Fold change vs veh, CCNY / RFU, UFL1 / Fold change vs veh, UFL1 / RFU, COG3 / Fold change vs veh, COG3 / RFU, DIAPH2 / Fold change vs veh, DIAPH2 / RFU, SKA2 / Fold change vs veh, SKA2 / RFU, AFF3 / Fold change vs veh, AFF3 / RFU, LMF1 / Fold change vs veh, LMF1 / RFU, IPO11 / Fold change vs veh, IPO11 / RFU, DFFB / Fold change vs veh, DFFB / RFU, FOXP1 / Fold change vs veh, FOXP1 / RFU, CARD8 / Fold change vs veh, CARD8 / RFU, STRN3 / Fold change vs veh, STRN3 / RFU, ADK / Fold change vs veh, ADK / RFU, RASSF2 / Fold change vs veh, RASSF2 / RFU, WIPF1 / Fold change vs veh, WIPF1 / RFU, LARP1B / Fold change vs veh, LARP1B / RFU, RASA1 / Fold change vs veh, RASA1 / RFU, RB1 / Fold change vs veh, RB1 / RFU, PPFIA1 / Fold change vs veh, PPFIA1 / RFU, MAT2A / Fold change vs veh, MAT2A / RFU, CCT5 / Fold change vs veh, CCT5 / RFU, WDR92 / Fold change vs veh, WDR92 / RFU, CUX1 / Fold change vs veh, CUX1 / RFU, TTC7A / Fold change vs veh, TTC7A / RFU, TMEM135 / Fold change vs veh, TMEM135 / RFU, DEPTOR / Fold change vs veh, DEPTOR / RFU, CPM / Fold change vs veh, CPM / RFU, DNAJB6 / Fold change vs veh, DNAJB6 / RFU, CACNA2D3 / Fold change vs veh, CACNA2D3 / RFU, DTX4 / Fold change vs veh, DTX4 / RFU, TFCP2 / Fold change vs veh, TFCP2 / RFU, GMCL1 /// GMCL1P1 / Fold change vs veh, GMCL1 /// GMCL1P1 / RFU, AEBP2 / Fold change vs veh, AEBP2 / RFU, SNHG1 /// SNORD22 /// SNORD25 /// SNORD26 /// SNORD27 /// SNORD28 /// SNORD29 /// SNORD31 / Fold change vs veh, SNHG1 /// SNORD22 /// SNORD25 /// SNORD26 /// SNORD27 /// SNORD28 /// SNORD29 /// SNORD31 / Fold change (Aza/veh), C12orf56 (ProbeSet 11735607_a_at) / Fold change (ACY-1035/veh), C12orf56 (ProbeSet 11735607_a_at) / Fold change (Aza/veh), FGFR1OP (ProbeSet 11751329_s_at) / Fold change (ACY-1035/veh), FGFR1OP (ProbeSet 11751329_s_at) / Fold change (Aza/veh), VPS36 (ProbeSet 11739960_a_at) / Fold change (ACY-1035/veh), VPS36 (ProbeSet 11739960_a_at) / RFU SYPL1 (11715823_x_at) / Fold change /veh SYPL1 (11715823_x_at) / RFU IGFBP7 (11715501_s_at) / Fold change /veh IGFBP7 (11715501_s_at) / RFU REEP3 (11722064_at) / Fold change /veh REEP3 (11722064_at) / RFU IGLL1 (11728026_x_at) / Fold change /veh IGLL1 (11728026_x_at): dose or concentration left out as unconfirmed. In kind it is cell-based, human. The conditions noted are these: MV-4-11 cells, 48 hours.

Turning to `Nc1ccc(-c2cccs2)cc1NC(=O)c1ccc2c(c1)cc(C1CC1)n2CCN1CCOCC1` [ACY-1035], the “Fold change /veh SOX15 (11748057_x_at)” value was 0.91.
